Data published in patent US6495589B2, “Somatostatin antagonists and agonists that act at the SST subtype 2 receptor” (Pfizer Inc., priority 2000, dated 2002).
Ends that are not written are not given here.

Tested on: GH4C1 cells
Assay: Rat pituitary assay for somatostatin receptor antagonists (cAMP content of GH4C1 cells)
Type: cell-based
Conditions: 100 nM VIP as stimulus
Description: This assay is designed to quantitate the activity of antagonists of somatostatin that interact directly at the somatostatin receptor. The assay facilitates discovery of agents which increase growth hormone secretion by modulating the inhibitory effects of somatostatin. As aforementioned, somatostatin (also abbreviated SRIF) inhibits GH secretion in the anterior pituitary by binding to a high affinity membrane-bound (and G-protein coupled) receptor which is coupled negatively to adenyl cyclase, thereby reducing intracellular levels of cAMP that would otherwise facilitate, for example, secretion/release of GH from cytoplasmic granules. […] The screen is designed to quantitate the ability of test agents to reverse SRIF's inhibition of the elevated intracellular cAMP levels produced by VIP.
In particular, cyclic AMP (cAMP) content of the pituitary cell line GH4C1 was used to differentiate somatostatin agonists from antagonists. […] This afforded a convenient way to conduct a homogenous immunoradiometric assay of cAMP content in cells lysed in situ, following incubation of the cells with test compound. cAMP content in the GH4C1 cells was determined according to the manufacturer's instructions, by comparison with standards at concentrations from 10 to 1,000 nM cAMP. […]
IC50 values are determined by polynomial regression and analzyed using a MACRO program. […]

## VIP: Vasoactive intestinal peptide (Sigma V3628), endogenous peptide that stimulates GH secretion and activates adenylate cyclase (HSDAVFTDNYTRLRKQMAVKKYLNSILN-NH2; ends and bridges not checked; UniProt P01282 125-152, looked up)
  cAMP content of the GH4C1 cells: increased
